Patent publication US8304425B2, “Pyrrolidinone, pyrrolidine-2,5-dione, pyrrolidine and thiosuccinimide derivatives, compositions and methods for treatment of cancer” (ArQule, Inc., priority 2007, dated 2012)
Structures can show the parent of a compound that is named as a salt. Where two headings read alike, the source gives them in different places. Each block holds one molecule with its values, some of them ahead of it. Where a SMILES comes first, the peptide text is derived from it. The star is where a group is joined. Cbz = O=C(OCc1ccccc1)*; CH2F = FC*

Columns and labels:
[1] = target: T1, Recombinant unphosphorylated c-Met comprising residues 1038-1346 (Homo sapiens, UniProt P08581); assay: c-Met 33P assay; assay type: biochemical; settings: 15 minutes preincubation, 100 μM ATP, IGF-1Rtide substrate, read-out: c-Met, p33 assay
T1 construct: The DNA fragment encoding the kinase domain (1038-1346) was inserted into Novagen vector pet28a; His6 (N); made in house; host or cells: E. coli BL21(DE3)RIL
From the text: cDNA of full-length c-Met purchased from Origen Technologies was used as template for PCR amplification. The DNA fragment encoding the kinase domain (1038-1346) was inserted into Novagen vector pet28a between Nco1 and Sal1 sites. The primers were designed to contain a six-histidine tag to the N-terminus. In order to express dephosphorylated c-Met kinase protein, a tyrosine phosphatase PTP1B (1-283) was sequentially ligated into the made construct between Sal1 and NotI sites. A second ribosome binding site was incorporated in the PTP1B primer after the Sal1 site. The N-terminal His-tagged proteins were expressed in Circlegrow broth (Q-Biogen). The transformed E. coli cell line BL21(DE3)RIL (Stratagene) was cultured to OD=0.8 at 37° C. and induced with 0.3 mM of IPTG for overnight at 12° C. The co-expressed protein was purified by metal-chelation chromatography followed by anion and cation columns. In brief, 4 liters of cells were lysed by sonication in 140 ml buffer containing 20 mM MOPS pH=6.5, 200 mM NaCl, 7.5% glycerol, 0.1% Igepal, supplied with 1 mM PMSF. The supernatant was obtained by centrifugation at 50,000 g for 30 minutes and followed by incubation with 8 mL of Ni-NTA His Bind resin (Novagen) at 4° C. for one hour. A second step 50 mL wash buffer (with 100 mM NaCl and 5 mM imidazole) was applied after initial wash with the lysis buffer. Protein was eluted by 200 mM imidazole pH=8.5, 100 mM NaCl and 7.5% glycerol and directly cleared by passing 10 mL QFF column. The salt concentration and the pH value of the protein flow through were adjusted to 50 mM and 7.5 by dilution, and then loaded to 1 mL SP FF column. The protein was further gel-filtered in an equilibrium buffer of 20 mM TrisHCl pH=8.5, 150 mM NaCl, 7.5% glycerol and 2 mM DTT. The monomeric unphosphorylated c-Met protein was concentrated to 30 mg/mL for storage at −80° C.
Recombinant unphosphorylated c-Met comprising residues 1038-1346 (12.5 ng) was pre-incubated with increasing concentrations of compounds for 15 minutes at room temperature. Following preincubation with compounds, 100 μM of IGF-1Rtide substrate and 100 μM ATP containing 2.5 μCi [^33P-γATP] was added to the mixture. The reaction was carried out for 30 minutes in a Reaction Buffer containing 8 mM MOPS-NaOH pH=7.0, 200 μM EDTA, 5 mM Magnesium acetate, 200 μM dithiothreitol (DTT) and 10 mM Na3VO4. The reaction was then terminated with 10 μL of 3% phosphoric acid. Ten μL were transferred onto a filterplate and were washed 3-times with 1% phosphoric acid; counts were read with a microbeta counter, and IC50 for c-Met inhibition was determined for each compound.

HT29 cells [2] = assay: MTS assay; assay type: cell-based; settings: then 48 hours drug-free medium, MTS readout
Procedure: HT29 cells were seeded in 96-well plates at 1,800 cells/well overnight in medium with 10% FBS. The next day, cells were treated with increasing concentrations of compounds for 24 hours at 37° C. After the treatments, the compound-containing medium was removed, cells were washed twice with PBS, and incubated in drug-free medium containing 10% FBS for an additional 48 hours. After addition of MTS and PMS for 4 hours at concentrations of 2 mg/mL and 0.92 mg/mL, respectively, the results were quantitated by spectrophotometry at λ=490 nm and IC50 for each compound was determined.

HT29 cells [3] = assay: Annexin V-Fluos cell death high content imaging after met siRNA transfection; assay type: cell-based; settings: increased concentrations of caspase inhibitor for 1 additional day after transfection
Procedure: Exponentially growing HT29 cells were plated in black 96-well plates at 5,000 cells/well overnight in medium with 10% FBS. The next day, cells were transiently transfected for 2 days using DharmaFECT 4 reagent with a pool of four met-specific 21-nucleotide RNA oligonucleotides forming a 19-bp duplex core with 2-nucleotide 3′ overhang in combination (Dharmacon, Inc., Lafayette, Colo.). Transfection of gapdh siRNA (Dharmacon, Inc.) and of a non-targeting siRNA under the same conditions was done in parallel as controls (Dharmacon, Inc.). Cells were then incubated in the absence or the presence of increasing concentrations of ZvAD-FMK, an irreversible caspase inhibitor for 1 additional day. Cells were incubated for at least 10 minutes in a labeling solution (10 mM HEPES, 140 mM NaCl and 6 mM CaCl2) containing […] Hoescht 33342 (blue channel; Molecular Probes/Invitrogen Corp., Natick, Mass.), 500 times diluted Annexin V-Fluos (green channel; Roche Applied Science, Indianapolis, Ind.) and 1 μg/ml propidium iodide (red channel; Roche Applied Science). High content image acquisition and analysis were carried out using a Beckman Coulter IC100 Cytometer. The program was set to take four images per well. […] Images were processed and numbers of positive cells for each channel and each condition were determined using Cytoshop 2.1 software (Beckman Coulter, Inc.). […]

[4] = Homo sapiens, HT-29, 24 hours treatment
[5] = 24 hours treatment, read-out: HT-29, IC50

T1 sequence (P08581 1038-1346): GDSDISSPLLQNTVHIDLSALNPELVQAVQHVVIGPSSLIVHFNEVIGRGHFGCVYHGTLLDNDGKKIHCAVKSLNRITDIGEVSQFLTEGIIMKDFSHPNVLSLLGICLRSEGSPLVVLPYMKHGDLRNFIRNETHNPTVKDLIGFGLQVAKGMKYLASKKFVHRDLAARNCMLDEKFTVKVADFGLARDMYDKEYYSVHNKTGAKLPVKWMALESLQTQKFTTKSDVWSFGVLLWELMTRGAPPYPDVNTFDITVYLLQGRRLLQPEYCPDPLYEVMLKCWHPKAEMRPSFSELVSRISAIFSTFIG

Molecule: O=C1NC[C@@H](c2c[nH]c3ccccc23)[C@@H]1c1cn2c3c(cccc13)CCC2 (racemic) [Example 4, (±)-trans-3-(5,6-dihydro-4H-pyrrolo[3,2,1-ij]quinolin-1-yl)-4-(1H-indol-3-yl)-pyrrolidin-2-one]
IC50 [1]: 1 to 10 µM | IC50 (HT29 cells [2]; [4]): ≤ 1 µM | melting point: 241 to 243 °C

Molecule: COc1cccc([C@@H]2CNC(=O)[C@H]2c2cn3c4c(cccc24)CCC3)c1 (racemic) [Example 6, (±)-trans-3-(5,6-Dihydro-4H-pyrrolo[3,2,1-ij]quinolin-1-yl)-4-(3-methoxy-phenyl)-pyrrolidin-2-one]
IC50 (HT29 cells [2]; [4]): ≥ 10 µM | melting point: 191 to 194 °C

Molecule: c1ccc2c([C@@H]3CNC[C@H]3c3cn4c5c(cccc35)CCC4)c[nH]c2c1 [Example 7, 1-[(3R,4R)-4-(1H-indol-3-yl)-pyrrolidin-3-yl]-5,6-dihydro-4H-pyrrolo[3,2,1-ij]quinoline]
IC50 [1]: ≥ 10 µM | IC50 (HT29 cells [2]; [4]): ≤ 1 µM

Molecule: CC(C)S(=O)(=O)N1C[C@@H](c2c[nH]c3ccccc23)[C@H](c2cn3c4c(cccc24)CCC3)C1 [Example 10, 1-[(3R,4R)-4-(1H-indol-3-yl)-1-(propane-2-sulfonyl)-pyrrolidin-3-yl]-5,6-dihydro-4H-pyrrolo[3,2,1-ij]quinoline]
IC50 [1]: ≥ 10 µM | IC50 (HT29 cells [2]; [4]): ≥ 10 µM | melting point: 100 to 115 °C

Molecule: CC(C)(C)CC(=O)N1C[C@@H](c2c[nH]c3ccccc23)[C@H](c2cn3c4c(cccc24)CCC3)C1 [Example 12, 1-[(3R,4R)-3-(5,6-dihydro-4H-pyrrolo[3,2,1-ij]quinolin-1-yl)-4-(1H-indol-3-yl)-pyrrolidin-1-yl]-3,3-dimethyl-butan-1-one]
IC50 [1]: ≥ 10 µM | IC50 (HT29 cells [2]; [4]): ≥ 10 µM | melting point: 202 to 204 °C

Molecule: COC(=O)C[C@H](NC(=O)[C@H](C)NC(=O)[C@@H](NC(=O)OCc1ccccc1)C(C)C)C(=O)CF [ZvAD-FMK] (Cbz-Val-Ala-Asp(OMe)-CH2F)
levels of cell death in met siRNA transfected cells (HT29 cells [3]): decreased the levels of cell death

Molecule: (3R,4R)-4-(5,6-dihydro-4H-pyrrolo[3,2,1-ij]quinolin-1-yl)-3-(1H-indol-3-yl)-5-thioxo-pyrrolidin-2-one and (3R,4R)-3-(5,6-dihydro-4H-pyrrolo[3,2,1-ij]quinolin-1-yl)-4-(1H-indol-3-yl)-5-thioxo-pyrrolidin-2-one (1/1 mixture) [Example 2]
IC50 [1]: ≤ 1 µM | IC50 (HT29 cells [2]; [5]): ≤ 1 µM

Molecule: (3R,4R)-4-(5,6-dihydro-4H-pyrrolo[3,2,1-ij]quinolin-1-yl)-3-(1H-indol-3-yl)-pyrrolidin-2-one and (3R,4R)-3-(5,6-dihydro-4H-pyrrolo[3,2,1-ij]quinolin-1-yl)-4-(1H-indol-3-yl)-pyrrolidin-2-one (1/1 mixture) [Example 3]
IC50 [1]: ≥ 10 µM | IC50 (HT29 cells [2]; [5]): ≤ 1 µM

Results, then the molecule that gave them:

melting point: 239 to 240 °C
Molecule: c1ccc2c([C@@H]3CNC[C@H]3c3cn4c5c(cccc35)CCC4)c[nH]c2c1 (as salt: HCl) [Example 7, 1-[(3R,4R)-4-(1H-indol-3-yl)-pyrrolidin-3-yl]-5,6-dihydro-4H-pyrrolo[3,2,1-ij]quinoline]

IC50 [1]: ≥ 10 µM | IC50 (HT29 cells [2]; [4]): ≤ 1 µM | melting point: 260 to 262 °C
Molecule: O=C1NCC(c2cn3c4c(cccc24)CCC3)C1c1c[nH]c2ccccc12 (mixture of isomers) [Example 1, 4-(5,6-dihydro-4H-pyrrolo[3,2,1-ij]quinolin-1-yl)-3-(1H-indol-3-yl)-pyrrolidin-2-one]

IC50 (HT29 cells [2]; [4]): ≥ 10 µM | melting point: 82 to 85 °C
Molecule: O=C1NC[C@@H](c2cccc(C(F)(F)F)c2)[C@@H]1c1cn2c3c(cccc13)CCC2 (racemic) [Example 5, (±)-trans-3-(5,6-Dihydro-4H-pyrrolo[3,2,1-ij]quinolin-1-yl)-4-(3-trifluoromethyl-phenyl)-pyrrolidin-2-one]

IC50 [1]: ≥ 10 µM | IC50 (HT29 cells [2]; [4]): ≥ 10 µM | melting point: 278 to 279 °C
Molecule: CCNC(=O)N1C[C@@H](c2c[nH]c3ccccc23)[C@H](c2cn3c4c(cccc24)CCC3)C1 [Example 8, (3R,4R)-3-(5,6-dihydro-4H-pyrrolo[3,2,1-ij]quinolin-1-yl)-4-(1H-indol-3-yl)-pyrrolidine-1-carboxylic acid ethylamide]

IC50 [1]: ≥ 10 µM | IC50 (HT29 cells [2]; [4]): ≥ 10 µM | melting point: 115 to 125 °C
Molecule: O=S(=O)(c1ccccc1)N1C[C@@H](c2c[nH]c3ccccc23)[C@H](c2cn3c4c(cccc24)CCC3)C1 [Example 9, 1-[(3R,4R)-1-benzenesulfonyl-4-(1H-indol-3-yl)-pyrrolidin-3-yl]-5,6-dihydro-4H-pyrrolo[3,2,1-ij]quinoline]

IC50 [1]: ≥ 10 µM | IC50 (HT29 cells [2]; [4]): ≥ 10 µM | melting point: 253 to 255 °C
Molecule: O=C(C1CCC1)N1C[C@@H](c2c[nH]c3ccccc23)[C@H](c2cn3c4c(cccc24)CCC3)C1 [Example 11, cyclobutyl-[(3R,4R)-3-(5,6-dihydro-4H-pyrrolo[3,2,1-ij]quinolin-1-yl)-4-(1H-indol-3-yl)-pyrrolidin-1-yl]-methanone]
